From patent US20260297060A1, “COMPOUNDS FOR THE DEGRADATION OF MUTANT BRAF” (C4 THERAPEUTICS, INC., priority 2023, published 2026) come the findings set out here.

Molecules are shown by their SMILES. Like-named read-outs stand apart in the source and are kept apart here.

Data set [1] can be described thus: Example 7 pharmacokinetics assay for PKPD study (plasma, tumor, liver). Format: in vivo, BALB/c nude mice. The conditions noted are these: mouse, po, 100 mg/kg, p.o., single dose. On the procedure:
For the PK and PD study, agents were administered to BALB/c nude mice bearing A375 human melanoma xenografts tumors. Dabrafenib, Compound 141, Compound 118, Compound 156, and Compound 180 were dosed p.o. once on day 1. Known BRAF inhibitor Dabrafenib was used as a positive control. Dabrafenib was dosed at 100 mg/kg. Compound 141, Compound 118, Compound 156, and Compound 180 were dosed at 10 mg/kg.
(§1) The plasma samples were collected at predetermined time points for PK analysis. The mice were euthanized at predetermined time points post the treatment. The blood samples were collected into the 1.5 mL Eppendorf tubes containing 15 μL of 0.5 M EDTA-K2. And then the anticoagulant blood samples were centrifuged at 2,500 g at 4° C. for 15 minutes. The plasma samples were separated into 2 aliquots. The 1st was used for PK analysis, and the 2nd served as backup. The samples were stored at −80° C. before bioanalysis.
The tumor samples were collected at predetermined time points for PK and WB analysis. The tumor was dissected out and split into 3 parts. The 1st part was used for PK analysis, the 2nd part was used for WB analysis and the last one served as backup for study. The samples were transferred into pre-labeled tubes and quickly froze in liquid nitrogen within 2 minutes after dissection. The samples were stored at −80° C. before bioanalysis.
(§2) Liver samples were collected at predetermined time points for PK analysis. The left lobe of the liver was dissected out and split into 2 parts. The 1st part was used for PK analysis and the 2nd part served as the backup for the study. The samples were transferred into pre-labeled tubes and quickly froze in liquid nitrogen within 2 minutes after dissection. The samples were stored at −80° C. before bioanalysis.
The harvested plasma and liver samples were processed for pharmacokinetics analysis by LC-MS/MS with a concentration range of 0.500-1000 ng/mL for Dabrafenib, Compound 118 and Compound 180 in plasma, 0.100~200 ng/ml for Dabrafenib in Liver and tumor homogenate, 50.0~50,000 ng/mL for Compound 141 in plasma and Liver homogenate, 1.00-1000 ng/ml for Compound 141 in tumor homogenate, 2.00~2000 ng/mL for Compound 118 and Compound 180 in Liver and 0.200~200 ng/ml in tumor homogenate, 1.00~2000 ng/mL for Compound 156 in plasma, 0.500-1000 ng/ml in liver and 0.500-1,000 ng/ml in tumor homogenate.

Data set [2] in a line: Example 8 pharmacokinetics assay for efficacy study (plasma, liver). Format: in vivo, BALB/c nude mice. The conditions noted are these: mouse, po, 35 mg/kg, p.o., QD × 21 days. The protocol:
For efficacy study, agents were tested in the A375 human melanoma xenografts model. Compound 8, Compound 26, and Compound 38 were administered to BALB/c nude mice bearing A375 xenografts from day 0 and dosed p.o. twice per day (BID). Compound 8 and Compound 26 were dosed at 10 mg/kg for 21 days. Compound 38 was dosed at 10 mg/kg for 10 days. The known BRAF inhibitor encorafenib was used as a positive control. encorafenib was administered from day 1 and dosed p.o. daily (QD) for 21 days and dosed at 35 mg/kg.
as §1, with “analysis. For non-termination plasma collection, blood samples were collected into the 1.5 mL Eppendorf tubes containing 3 μL of 0.5 M EDTA-K2. For termination plasma collection, the” for “analysis. The”, “the treatment and the” for “the treatment. The”
as §2
The harvested plasma and liver samples were processed for pharmacokinetics analysis by LC-MS/MS with a concentration range of 2.0~2000 ng/mL for encorafenib in plasma and liver homogenate, 10.0-10,000 ng/mL for Compound 8 and Compound 38 in plasma and liver homogenate, 20.0~20,000 ng/mL for Compound 26 in plasma and liver homogenate.

[3] abbreviates: liver, read-out: Concentration in Liver (mean ± SEM).
[4] abbreviates: plasma, read-out: Concentration in Plasma (mean ± SEM).
[5] abbreviates: tumor, read-out: Concentration in Tumor (mean ± SEM).

For `CC(C)(C)c1nc(-c2cccc(NS(=O)(=O)c3c(F)cccc3F)c2F)c(-c2ccnc(N)n2)s1` [Dabrafenib, dabrafenib, reference compound], in data set [1] (setting [3]), the concentration at 6 h was 2450 ± 737 ng/g and the concentration at 12 h was 1110 ± 453 ng/g. In data set [1] (setting [4]), the concentration at 1 h was 7370 ± 865 ng/mL, the concentration at 6 h came out at 1140 ± 390 ng/mL, the concentration at 12 h is 336 ± 137 ng/mL and the concentration at 24 h was determined as 3.88 ± 2.43 ng/mL. Further, in data set [1] (setting [5]), the concentration at 1 h turned out to be 9520 ± 2050 ng/g, the concentration at 6 h stood at 702 ± 341 ng/g, the concentration at 12 h came to 242 ± 96 ng/g and the concentration at 24 h worked out at 5.53 ± 0.951 ng/g.

On to `COC(=O)N[C@@H](C)CNc1nccc(-c2cn(C(C)C)nc2-c2cc(Cl)cc(NS(C)(=O)=O)c2F)n1` [Encorafenib, encorafenib, reference compound], for which the concentration at 6 h in data set [2] (setting [3]) was found to be 186 ± 87.2 ng/g; in data set [2] (setting [4]), 336 ± 150 ng/mL.
